Assay results taken from patent US20250382274A1, “COMPOSITIONS AND METHODS FOR THE TREATMENT OF PARKINSON'S AND GAUCHER DISEASE” (CHILDREN'S HOSPITAL MEDICAL CENTER, priority 2024, published 2025).
Numbering of substitutions follows the chain as printed.

Assays:
[1] = molecular target: T1, GCase (purified enzyme, Velaglucerase alfa, VPRIV) (Homo sapiens, UniProt P04062); experiment: GCase AC50 enzyme activity assay; format: biochemical; conditions: pH 5.6, 4-MuGlu substrate, compounds 0-40 μM
T1 construct: purchased Shire Human Genetic Therapies, Cambridge, MA
T1 sequence (P04062 40-536): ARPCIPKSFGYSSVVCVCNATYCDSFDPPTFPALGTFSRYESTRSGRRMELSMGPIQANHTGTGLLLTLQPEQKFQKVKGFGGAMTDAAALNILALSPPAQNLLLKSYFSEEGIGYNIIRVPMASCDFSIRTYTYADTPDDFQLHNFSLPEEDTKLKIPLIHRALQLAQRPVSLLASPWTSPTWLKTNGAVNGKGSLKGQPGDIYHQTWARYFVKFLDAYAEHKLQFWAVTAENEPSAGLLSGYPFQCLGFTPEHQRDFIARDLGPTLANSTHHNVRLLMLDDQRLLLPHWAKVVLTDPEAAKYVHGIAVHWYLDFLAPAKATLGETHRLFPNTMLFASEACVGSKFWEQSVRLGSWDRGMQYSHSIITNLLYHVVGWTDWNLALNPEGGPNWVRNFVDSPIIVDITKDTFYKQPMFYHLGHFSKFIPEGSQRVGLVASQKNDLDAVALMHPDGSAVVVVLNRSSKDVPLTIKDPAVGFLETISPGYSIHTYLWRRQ
Description: An in vitro enzyme assay was performed through a dose response curve of Compounds (0-40 μM) with purified enzyme (Velaglucerase alfa, VPRIV®, Shire Human Genetic Therapies, Cambridge, MA) in citric phosphate [0.025 mM] buffer (pH 5.6) where 4-MuGlu [4 mM] was the substrate. Compounds were pre-incubated with the enzyme for 40 minutes at room temperature prior to substrate addition, and then incubated at 37° C. for 1 hour. AC50 represents the concentration of a Compound that produces 50% of its maximal response in the in vitro GCase activity assay.
(§1) GCase activities were determined fluorometrically with 4-MuGlu. The relative fluorescence unit (RFU) of 4-MuGlu standard curve is generated with the plate reader (M5, Molecular Devise) as 1 n mole=56500 RFU. The human mutant Gaucher fibroblasts were purchased from Coriell Institute (Camden, NJ): N370/ΔGG (Cat #: GM00852) and L444P/L444P (cat #: GM00877)

[2] = molecular target: T2, GCase in healthy human fibroblasts (Homo sapiens, UniProt P04062); experiment: EC50 cell-based assay for GCase, healthy human fibroblasts (GCase cell); conditions: 5 days compound treatment (0-20 μM)
T2 construct: Healthy human fibroblasts (GCase cell); endogenous in cells; host or cells: healthy human fibroblasts
T2 sequence (P04062 40-536): T1 sequence (P04062 40-536)
Description: (§2) In cell assays, GCase activity measurements were carried out on harvested cell pellets on the 5th day of Compound treatment. Healthy human fibroblasts (GCase cell), mutant N370/ΔGG (GCase N370S) or L444P/L444P (GCase L444P) were incubated with the Compound (0-20 μM) for 5 days with 15% fetal bovine serum (FBS) in Dulbecco's Modified Eagle Medium (DMEM) in 100 mm culture dishes. Fresh Medium with Compound were replaced every other day. On the 5th day of Compound treatment, harvested cell pellets were lysed with 1% Na-taurocholate (Tc) and 1% Triton X-100 (Tx), and mixed with the reaction buffer which contained 0.025 mM Citric phosphate buffer (pH 5.6), 0.25% Tc/Tx and 4 mM 4-MuGlu, then incubated at 37° C. for 1 hour. EC50 represents the concentration of a Compound that produces 50% of its maximal response in the cell-based GCase activity assay.
as §1

[3] = molecular target: T3, GCase N370S (N370/ΔGG human mutant Gaucher fibroblasts) (Homo sapiens, UniProt P04062, N409S); experiment: EC50 cell-based assay for GCase, mutant N370/ΔGG fibroblasts (GCase N370S); conditions: 5 days compound treatment (0-20 μM)
T3 construct: The human mutant Gaucher fibroblasts were purchased from Coriell Institute; host or cells: human Gaucher fibroblasts N370/ΔGG
T3 sequence (P04062 40-536 N409S): T1 sequence (P04062 40-536) with N370S
Description: as §2, §1

[4] = molecular target: T4, GCase L444P (L444P/L444P human mutant Gaucher fibroblasts) (Homo sapiens, UniProt P04062, L483P); experiment: EC50 cell-based assay for GCase, mutant L444P/L444P fibroblasts (GCase L444P); conditions: 5 days compound treatment (0-20 μM)
T4 construct: The human mutant Gaucher fibroblasts were purchased from Coriell Institute; host or cells: human Gaucher fibroblasts L444P/L444P
T4 sequence (P04062 40-536 L483P): T1 sequence (P04062 40-536) with L444P
Description: as §2, §1

CN1CCC(NC(=O)C(C)(C)Oc2ccccc2C(=O)NCC2CCCO2)CC1 (stereo not shown) [Compound 37, 2-(2-(1-methylpiperidin-4-ylcarbamoyl)propan-2-yloxy)-N-((tetrahydrofuran-2-yl)methyl)benzamide]
< 10 µM: AC50 [1] | EC50 [2] | EC50 [3] | EC50 [4]
